Laboratory results from PubChem BioAssay (NCI).
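Grown in 96-well plates, cells were treated for 48 hours with each compound at five concentrations. Insufficient inhibition: endpoint recorded as highest concentration tested. TGI marks complete inhibition of growth.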

Assays:
Experiment in all cases: inhibition of tumour cell growth, NCI panel, 48 h
[1] = tested on: ACHN renal
[2] = tested on: BT-549 breast
[3] = tested on: DU-145 prostate
[4] = tested on: HCC-2998 colon
[5] = tested on: MCF7 breast
[6] = tested on: MDA-MB-435
[7] = tested on: NCI-H226 lung
[8] = tested on: OVCAR-3 ovarian
[9] = tested on: SK-OV-3 ovarian

SMILES	TGI [1]	TGI [2]	TGI [3]	TGI [4]	TGI [5]	TGI [6]	TGI [7]	TGI [8]	TGI [9]
O=C1c2ccccc2-c2nc(-c3cccnc3)cc3c2c1nc1ccccc13	> 100 µM	> 100 µM	> 100 µM	> 100 µM	> 100 µM	34.7 µM	> 100 µM	> 100 µM	> 100 µM
O=C(/C=C/c1ccc(O)c(O)c1)OCCc1cccc2ccccc12	13.4 µM	21.2 µM	18.6 µM	23.4 µM	25.7 µM	4.65 µM	58.6 µM	14.1 µM	–
COc1cc(/C=C/C(C)=O)ccc1OP(=O)(O)O	> 100 µM	> 100 µM	> 100 µM	> 100 µM	> 100 µM	> 100 µM	> 100 µM	> 100 µM	> 100 µM
CCOP(=O)(Nc1ccc(-c2ccccc2)cc1)OCC	> 100 µM	> 100 µM	> 100 µM	> 100 µM	> 100 µM	> 100 µM	–	> 100 µM	> 100 µM
CN1CCC2(CC1)C(=O)N(N1CCCCCC1)C(=O)N2c1ccccc1	> 100 µM	> 100 µM	> 100 µM	> 100 µM	> 100 µM	> 100 µM	> 100 µM	> 100 µM	> 100 µM
C1COC(NC(C2CC2)C2CC2)=N1	> 100 µM	> 100 µM	> 100 µM	> 100 µM	> 100 µM	> 100 µM	> 100 µM	> 100 µM	> 100 µM
CC(C)OP(=O)(CN(C)/C(F)=N\C(F)(F)F)OC(C)C	> 100 µM	> 100 µM	> 100 µM	> 100 µM	> 100 µM	> 100 µM	> 100 µM	> 100 µM	> 100 µM
NC1C/C(=N\O)c2c(I)sc(I)c21 (centres undefined)	33.5 µM	29.9 µM	31.4 µM	38.5 µM	36 µM	27.2 µM	34.1 µM	30.2 µM	30.2 µM
O=C(Cn1nc(Br)c(Br)c1Br)c1ccccc1	76.2 µM	80.4 µM	> 100 µM	> 100 µM	83.6 µM	> 100 µM	63.5 µM	> 100 µM	95.2 µM
CC(=O)Nc1ccc(CNc2cc(=O)[nH]c(=O)[nH]2)cc1	> 100 µM	> 100 µM	> 100 µM	> 100 µM	> 100 µM	> 100 µM	> 100 µM	> 100 µM	> 100 µM
O=c1[nH]c2ccc(CC(=S)N3CCOCC3)cc2s1	> 100 µM	> 100 µM	> 100 µM	–	> 100 µM	> 100 µM	> 100 µM	> 100 µM	> 100 µM
CCOP(=O)(/C=C\n1cnc2c(=O)n(C(C)=O)c(N)nc21)OCC	> 100 µM	> 100 µM	> 100 µM	–	> 100 µM	> 100 µM	> 100 µM	> 100 µM	> 100 µM
